Holding throughout (assay type): cell-based
One experiment has as its system P. aeruginosa MP-3. In words: Broth dilution MIC determination (CLSI), P. aeruginosa MP-3. Conditions: Pseudomonas aeruginosa, MP3; strain MP-3, broth dilution.
A further experiment deals with K. pneumoniae MP-546. In words: Broth dilution MIC determination (CLSI), K. pneumoniae MP-546. Particulars: Klebsiella pneumoniae, MP546; strain MP-546, broth dilution.
A further experiment deals with A. baumannii MP-15. In words: Broth dilution MIC determination (CLSI), A. baumannii MP-15. Particulars: Acinetobacter baumannii, MP15; strain MP-15, broth dilution; read-out: MIC A. baumanii MP-15.
In a further experiment the test system is S. aureus MP-12. The experiment in a line: Broth dilution MIC determination (CLSI), S. aureus MP-12. Conditions: Staphylococcus aureus, MP12; strain MP-12, broth dilution.
Another experiment has as its system E. coli MP-4. The experiment in a line: Broth dilution MIC determination (CLSI), E. coli MP-4. Conditions: Escherichia coli.
Setting [1] is: MP4, strain MP-4, broth dilution, read-out: MIC E. coli MP-4.

Molecules are shown by their SMILES. Values after ≈ are worked out from the molar mass of the structure shown. Where two headings read alike, the source gives them in different places. A value given as a limit tells only on which side of the number the result lay.

On to `CO[C@]1(C)C[C@@H](C)CN(C)[C@H](C2CN(CC=C(C)C)C2)COC(=O)C(C)(C)C(=O)[C@H](C)[C@H]1O[C@@H]1O[C@H](C)C[C@H](N(C)C)[C@H]1O` [Compound 155, (3R,6R,8R,9R,10R)-9-(((2S,3R,4S,6R)-4-(dimethylamino)-3-hydroxy-6-methyltetrahydro-2H-pyran-2-yl)oxy)-8-methoxy-4,6,8,10,12,12-hexamethyl-3-(1-(3-methylbut-2-en-1-yl)azetidin-3-yl)-1-oxa-4-azacyclotridecane-11,13-dione], for which the MIC is > 32 µg/mL against P. aeruginosa MP-3; < 4 µg/mL against K. pneumoniae MP-546; 4 to 32 µg/mL (≈ 6.41 to 51.3 µM) with A. baumannii MP-15; 4 to 32 µg/mL (≈ 6.41 to 51.3 µM) in the experiment with S. aureus MP-12; < 4 µg/mL in the experiment on E. coli MP-4 (MP4, read-out: MIC E. coli MP-4).

Take `CCN(C)[C@H]1CC[C@H]([C@H]2COC(=O)C(C)(C)C(=O)[C@H](C)[C@@H](O[C@@H]3O[C@H](C)C[C@H](N(C)C)[C@H]3O)[C@](C)(OC)C[C@@H](C)CN2C)CC1` [Compound 157, (3S,6R,8R,9R,10R)-9-(((2S,3R,4S,6R)-4-(dimethylamino)-3-hydroxy-6-methyltetrahydro-2H-pyran-2-yl)oxy)-3-((1r,4S)-4-(ethyl(methyl)amino)cyclohexyl)-8-methoxy-4,6,8,10,12,12-hexamethyl-1-oxa-4-azacyclotridecane-11,13-dione]: the MIC against P. aeruginosa MP-3 is > 32 µg/mL; against K. pneumoniae MP-546, 4 to 32 µg/mL (≈ 6.25 to 50 µM); in the experiment with A. baumannii MP-15 it was > 32 µg/mL; in the experiment with S. aureus MP-12, > 32 µg/mL; in the experiment on E. coli MP-4 (setting [1]) it was 4 to 32 µg/mL (≈ 6.25 to 50 µM).

For `CO[C@]1(C)C[C@@H](C)CN(C)[C@H](C2CCN(C(=O)CN(C)C)CC2)[C@H](C)OC(=O)C(C)(C)C(=O)[C@H](C)[C@H]1O[C@@H]1O[C@H](C)C[C@H](N(C)C)[C@H]1O` [Compound 159, (2S,3R,6R,8R,9R,10R)-9-(((2S,3R,4S,6R)-4-(dimethylamino)-3-hydroxy-6-methyltetrahydro-2H-pyran-2-yl)oxy)-3-(1-(dimethylglycyl)piperidin-4-yl)-8-methoxy-2,4,6,8,10,12,12-heptamethyl-1-oxa-4-azacyclotridecane-11,13-dione], the MIC in the experiment with P. aeruginosa MP-3 was > 32 µg/mL; with K. pneumoniae MP-546, > 32 µg/mL; in the experiment on A. baumannii MP-15, > 32 µg/mL; in the experiment with S. aureus MP-12, > 32 µg/mL; in the experiment on E. coli MP-4 (setting [1]), 4 to 32 µg/mL (≈ 5.86 to 46.9 µM).

With `CO[C@]1(C)C[C@@H](C)CN(C)[C@H]([C@H]2CCN(C)C2)COC(=O)C(C)(C)C(=O)[C@H](C)[C@H]1O[C@@H]1O[C@H](C)C[C@H](N(C)C)[C@H]1O` [Compound 166, (3R,6R,8R,9R,10R)-9-(((2S,3R,4S,6R)-4-(Dimethylamino)-3-hydroxy-6-methyltetrahydro-2H-pyran-2-yl)oxy)-8-methoxy-4,6,8,10,12,12-hexamethyl-3-((S)-1-methylpyrrolidin-3-yl)-1-oxa-4-azacyclotridecane-11,13-dione], the MIC with P. aeruginosa MP-3 is > 32 µg/mL; with K. pneumoniae MP-546, < 4 µg/mL; in the experiment with A. baumannii MP-15, > 32 µg/mL; against S. aureus MP-12, > 32 µg/mL; with E. coli MP-4 (setting [1]), < 4 µg/mL.

As for `CO[C@]1(C)C[C@@H](C)CN(C)[C@H](C2CN(C(=O)CC(C)(C)CN(C)CC(C)C)C2)COC(=O)C(C)(C)C(=O)[C@H](C)[C@H]1O[C@@H]1O[C@H](C)C[C@H](N(C)C)[C@H]1O` [Compound 167, (3R,6R,8R,9R,10R)-9-(((2S,3R,4S,6R)-4-(dimethylamino)-3-hydroxy-6-methyltetrahydro-2H-pyran-2-yl)oxy)-3-(1-(4-(isobutyl(methyl)amino)-3,3-dimethylbutanoyl)azetidin-3-yl)-8-methoxy-4,6,8,10,12,12-hexamethyl-1-oxa-4-azacyclotridecane-11,13-dione], the MIC was > 32 µg/mL against P. aeruginosa MP-3; 4 to 32 µg/mL (≈ 5.41 to 43.3 µM) with K. pneumoniae MP-546; > 32 µg/mL with A. baumannii MP-15; 4 to 32 µg/mL (≈ 5.41 to 43.3 µM) with S. aureus MP-12; < 4 µg/mL in the experiment with E. coli MP-4 (setting [1]).

Regarding `CO[C@]1(C)C[C@@H](C)CN(C)[C@@H]([C@@H]2CCN(C(=O)CN(C)C)C2)COC(=O)C(C)(C)C(=O)[C@H](C)[C@H]1O[C@@H]1O[C@H](C)C[C@H](N(C)C)[C@H]1O` [Compound 169, (3S,6R,8R,9R,10R)-9-(((2S,3R,4S,6R)-4-(Dimethylamino)-3-hydroxy-6-methyltetrahydro-2H-pyran-2-yl)oxy)-3-((R)-1-(dimethylglycyl)pyrrolidin-3-yl)-8-methoxy-4,6,8,10,12,12-hexamethyl-1-oxa-4-azacyclotridecane-11,13-dione], the MIC with P. aeruginosa MP-3 is > 32 µg/mL; against K. pneumoniae MP-546, 4 to 32 µg/mL (≈ 6.11 to 48.9 µM); with A. baumannii MP-15, > 32 µg/mL; against S. aureus MP-12, 4 to 32 µg/mL (≈ 6.11 to 48.9 µM); with E. coli MP-4 (setting [1]) it was < 4 µg/mL.

With `CO[C@]1(C)C[C@@H](C)CN(C)[C@H](C2CC3CCC(C2)N3C(C)C)COC(=O)C(C)(C)C(=O)[C@H](C)[C@H]1O[C@@H]1O[C@H](C)C[C@H](N(C)C)[C@H]1O` (stereo partly drawn) [Compound 170, (3R,6R,8R,9R,10R)-9-(((2S,3R,4S,6R)-4-(dimethylamino)-3-hydroxy-6-methyltetrahydro-2H-pyran-2-yl)oxy)-3-(8-isopropyl-8-azabicyclo[3.2.1]octan-3-yl)-8-methoxy-4,6,8,10,12,12-hexamethyl-1-oxa-4-azacyclotridecane-11,13-dione], the MIC with P. aeruginosa MP-3 is > 32 µg/mL; against K. pneumoniae MP-546, 4 to 32 µg/mL (≈ 6.14 to 49.1 µM); in the experiment on A. baumannii MP-15, > 32 µg/mL; in the experiment on S. aureus MP-12, 4 to 32 µg/mL (≈ 6.14 to 49.1 µM); in the experiment with E. coli MP-4 (setting [1]), 4 to 32 µg/mL (≈ 6.14 to 49.1 µM).

`CO[C@]1(C)C[C@@H](C)CN(C)[C@H]([C@H]2CCCN(C)C2)COC(=O)C(C)(C)C(=O)[C@H](C)[C@H]1O[C@@H]1O[C@H](C)C[C@H](N(C)C)[C@H]1O` [Compound 171, (3R,6R,8R,9R,10R)-9-(((2S,3R,4S,6R)-4-(dimethylamino)-3-hydroxy-6-methyltetrahydro-2H-pyran-2-yl)oxy)-8-methoxy-4,6,8,10,12,12-hexamethyl-3-((S)-1-methylpiperidin-3-yl)-1-oxa-4-azacyclotridecane-11,13-dione]: the MIC against P. aeruginosa MP-3 was > 32 µg/mL; in the experiment with K. pneumoniae MP-546, 4 to 32 µg/mL (≈ 6.69 to 53.5 µM); in the experiment with A. baumannii MP-15, > 32 µg/mL; in the experiment on S. aureus MP-12, > 32 µg/mL; with E. coli MP-4 (setting [1]), 4 to 32 µg/mL (≈ 6.69 to 53.5 µM).

Take `CO[C@]1(C)C[C@@H](C)CN(C)[C@H](C2CN(Cc3cn(C)cn3)C2)COC(=O)C(C)(C)C(=O)[C@H](C)[C@H]1O[C@@H]1O[C@H](C)C[C@H](N(C)C)[C@H]1O` [Compound 173, (3R,6R,8R,9R,10R)-9-(((2S,3R,4S,6R)-4-(dimethylamino)-3-hydroxy-6-methyltetrahydro-2H-pyran-2-yl)oxy)-8-methoxy-4,6,8,10,12,12-hexamethyl-3-(1-((1-methyl-1H-imidazol-4-yl)methyl)azetidin-3-yl)-1-oxa-4-azacyclotridecane-11,13-dione]: the MIC in the experiment on P. aeruginosa MP-3 was > 32 µg/mL; against K. pneumoniae MP-546, > 32 µg/mL; in the experiment with A. baumannii MP-15, > 32 µg/mL; in the experiment with S. aureus MP-12 it was > 32 µg/mL; in the experiment on E. coli MP-4 (setting [1]), 4 to 32 µg/mL (≈ 6.16 to 49.2 µM).

For `CO[C@]1(C)C[C@@H](C)CN(C(C)=O)[C@H](C2CCN(C(C)C)CC2)COC(=O)C(C)(C)C(=O)[C@H](C)[C@H]1O[C@@H]1O[C@H](C)C[C@H](N(C)C)[C@H]1O` [Compound 174, (3R,6R,8R,9R,10R)-4-Acetyl-9-(((2S,3R,4S,6R)-4-(dimethylamino)-3-hydroxy-6-methyltetrahydro-2H-pyran-2-yl)oxy)-3-(1-isopropylpiperidin-4-yl)-8-methoxy-6,8,10,12,12-pentamethyl-1-oxa-4-azacyclotridecane-11,13-dione], the MIC in the experiment with P. aeruginosa MP-3, against K. pneumoniae MP-546, with A. baumannii MP-15, against S. aureus MP-12 and in the experiment with E. coli MP-4 (setting [1]) was > 32 µg/mL throughout.

As for `CCN1CCC([C@H]2COC(=O)C(C)(C)C(=O)[C@H](C)[C@@H](O[C@@H]3O[C@H](C)C[C@H](N(C)C)[C@H]3O)[C@](C)(OC)C[C@@H](C)CN2C)CC1` [Compound 175, (3S,6R,8R,9R,10R)-9-(((2S,3R,4S,6R)-4-(dimethylamino)-3-hydroxy-6-methyltetrahydro-2H-pyran-2-yl)oxy)-3-(1-ethylpiperidin-4-yl)-8-methoxy-4,6,8,10,12,12-hexamethyl-1-oxa-4-azacyclotridecane-11,13-dione], the minimum inhibitory concentration (MIC) with P. aeruginosa MP-3 was > 32 µg/mL; against K. pneumoniae MP-546, < 4 µg/mL; with A. baumannii MP-15, > 32 µg/mL; in the experiment on S. aureus MP-12 it was 4 to 32 µg/mL (≈ 6.54 to 52.3 µM); in the experiment on E. coli MP-4 (setting [1]), < 4 µg/mL.

On to `CO[C@]1(C)C[C@@H](C)CN(C)[C@H](C2CCN(Cc3nccn3C)CC2)COC(=O)C(C)(C)C(=O)[C@H](C)[C@H]1O[C@@H]1O[C@H](C)C[C@H](N(C)C)[C@H]1O` [Compound 179, (3R,6R,8R,9R,10R)-9-(((2S,3R,4S,6R)-4-(dimethylamino)-3-hydroxy-6-methyltetrahydro-2H-pyran-2-yl)oxy)-8-methoxy-4,6,8,10,12,12-hexamethyl-3-(1-((1-methyl-1H-imidazol-2-yl)methyl)piperidin-4-yl)-1-oxa-4-azacyclotridecane-11,13-dione], for which the MIC in the experiment with P. aeruginosa MP-3 was > 32 µg/mL; with K. pneumoniae MP-546, 4 to 32 µg/mL (≈ 5.9 to 47.2 µM); in the experiment on A. baumannii MP-15 it was > 32 µg/mL; with S. aureus MP-12, 4 to 32 µg/mL (≈ 5.9 to 47.2 µM); in the experiment with E. coli MP-4 (setting [1]) it was < 4 µg/mL.

With `CO[C@]1(C)C[C@@H](C)CN(C)[C@@H]([C@H]2CC[C@H](N(C)C(=O)CNC3CC3)CC2)COC(=O)C(C)(C)C(=O)[C@H](C)[C@H]1O[C@@H]1O[C@H](C)C[C@H](N(C)C)[C@H]1O` [Compound 180, 2-(cyclopropylamino)-N-((1S,4r)-4-((3S,6R,8R,9R,10R)-9-(((2S,3R,4S,6R)-4-(dimethylamino)-3-hydroxy-6-methyltetrahydro-2H-pyran-2-yl)oxy)-8-methoxy-4,6,8,10,12,12-hexamethyl-11,13-dioxo-1-oxa-4-azacyclotridecan-3-yl)cyclohexyl)-N-methylacetamide], the MIC is > 32 µg/mL with P. aeruginosa MP-3; > 32 µg/mL against K. pneumoniae MP-546; > 32 µg/mL in the experiment on A. baumannii MP-15; > 32 µg/mL with S. aureus MP-12; 4 to 32 µg/mL (≈ 5.64 to 45.1 µM) with E. coli MP-4 (setting [1]).

For the origin of these results see patent US20220177508A1, “C10-Cyclic Substituted 13-Membered Macrolides and Uses Thereof” (Zikani Therapeutics, Inc., priority 2018, published 2022).
